The values below are quoted from earlier work in US6517822B1, “Formulations and methods for straightening hair” (priority 1998, dated 2003).

The conditions of data set [1]: molarity of 0.1.

SMILES strings stand for the structures.

As for `CC(N)=O` [Acetamide], the “tumor finding from oral exposure” value with animal studies was “liver tumors”.

Take `CC(=O)O` [acetic acid]: for the setting “0.01 mole in a liter of water at room temperature”, the “solute ionized at equilibrium” value is “about 4%”. The acetic acid ionized (0.1 mol, final volume 1 liter) is 1.3%. In data set [1], the electrical conductivity is 4.67 reciprocal ohms (mho).
